Patent publication US20060183773A1, “Uses of methylphenidate derivatives” (priority 2005, published 2006)

How the values were obtained:
Format in all cases: cell-based, human
IL-8 = IL-8 release by PHA-stimulated PBL, ELISA; settings: PBL donor GR-192; 2 μg/ml PHA, 96 h; Cpd II 15 μg/ml, Dex 10 μM; FIG. 8
Method: Whole blood was drawn from GR-192, a normal human volunteer, and processed as described in Example 1 to give heat-inactivated serum and PBL. […] After this incubation, PHA was added to give a final concentration of 2 μg/ml, and the cells were incubated for an additional 96 hours at 37° C., 5% CO2. All cultures were performed in triplicate. Cells were then removed by centrifugation at 1000 rpm for 10 minutes, and the culture medium collected.
Release of IL-8 into the culture medium was measured by ELISA. To perform the ELISA, matched pairs of antibodies against human IL-8 were purchased from Pierce Biotechnology and Biosource, respectively. ELISA strip well plates were coated with 2 μg/ml of antibody to IL-8 (in phosphate-buffered saline (PBS)) overnight at room temperature. The plates were then blocked using a 4% BSA solution in PBS for one hour, followed by the addition of 50 μl of experimental culture medium per well in duplicate. The plates were incubated at room temperature for one hour and then washed using 50 mM Tris pH 8.0 with 0.1% Tween 20. Then, solutions of 100 ng/ml biotinylated second antibody to IL-8 were made in blocking buffer, and 100 μl were added per well. The plates were incubated for 1 hour and washed again. […] OD was determined using microplate reader with a 450 nm filter.

RAP-1 = RAP-1 activation pulldown assay in TRiPS cells; settings: CD3/CD28 beads + 15 μg/ml
Method: Day 10 TRiPS cells, 1×10^6, were incubated with 15 μg/ml of the compound of formula II (Cpd II) for 1 hour at 37° C. Then, the cells were incubated with CD3/CD28 beads (1 μl per 100,000 cells) (obtained from Dynal) for 10 minutes at 37° C. The cells were then lysed with a mild buffer (supplied with Pierce EZ-Detect activation kit described below) to produce cell extracts. Protein concentrations of the resulting extracts were determined by bicinchoninic acid (BCA) assay (Pierce) and placed on ice for immediate use.
Pulldown assays were performed using Pierce EZ-Detect activation kits according to the manufacturer's instructions utilizing GST-RAF-1-RBD and GST-RalGDS-RBD for RAS and RAP-1 respectively. Briefly, 400 μg total protein from each extract was combined with recombinant protein and glutathione resin and incubated at 4° C. for one hour with gentle shaking. The resin was then washed to remove unbound protein and the activated RAS and RAP-1 proteins were removed by boiling in the presence of SDS-PAGE loading dye containing reducing agent. RAS and RAP-1 western blots were performed to visualize the proteins using antibodies supplied with the kit. Densitometry of the X-ray films was done by scanning and computer analysis.

IL-4 = test: Custom AntibodyArray, TRiPS cells: IL-4; settings: 15 μg/ml, 30 minutes
Method: (§1) Day 18 TRiPS cells, 1×10^6, were incubated for 30 minutes at 37° C., either with nothing added (“Nil”), with 1 μl CD3/CD28 Dynabeads (Dynal, Oslo, Norway) (“CD3/CD28 beads”) per 100,000 cells, or with CD3/CD28 beads and 15 μg/ml of the compound of formula II (Cpd II). After the incubation, the cells were lysed in Cell-Lytic Mammalian Cell Extraction Reagent (Sigma). After centrifugation to pellet cellular debris, the supernatants (cell extracts) were obtained.
(§2) The cell extracts (supernatants) were then analyzed using a Custom AntibodyArray™ manufactured by Hypromatrix Inc., Worcester, Mass., following the manufacturer's instructions. The Custom AntibodyArray™ is a nylon membrane blotted with antibodies to the proteins listed below. Briefly, the cell extracts were incubated with duplicate Custom AntibodyArray™'s for 2 hours at room temperature with slow shaking, followed by three washes with Tris buffer (150 mM NaCl, 25 mM Tris, 0.05% Tween-20, pH 7.5). HRP-labeled antibodies specific for phosphorylated-tyrosine, phosphorylated-serine and phosphorylated-threonine in Tris buffer were added, and the arrays incubated for 2 hours. After three more washes with Tris buffer, a peroxidase-reactive luminescent substrate was added. The arrays were visualized by exposure to X-ray film. Densitometry of the X-ray films was measured by scanning and computer analysis.

JNK3 = test: Custom AntibodyArray, TRiPS cells: JNK3; settings: 15 μg/ml, 30 minutes
Method: as §1, §2

COC(=O)C(c1ccc(-c2ccccc2)cc1)C1CCCCN1 (centres unmarked) [Cpd II]
IL-8 release induced by PHA (IL-8): significantly inhibited IL-8 release induced by PHA
inhibition of RAP-1 (in words) (RAP-1): appeared to inhibit RAP-1
Integrated Optical Density for RAP-1 assay (RAP-1; no treatment 259.27, beads only 213.66): 87.26
Effect of Cpd II on the protein in CD3/CD28 stimulated TRiPS cells (IL-4): Decreased level back to basal levels (Nil control)
Effect of Cpd II on the protein in CD3/CD28 stimulated TRiPS cells (JNK3): Decreased level back to basal levels (Nil control)
